# In patent US20160279110A1, “COMPOSITIONS AND METHODS FOR TREATING CANCER” (UNIVERSITY OF ROCHESTER, priority 2015, published 2016):
# Key:
# UPF1 [1] = experiment: Western blot of UPF1 cleavage and phosphorylation in MCF7 cells; format: cell-based, human
# Procedure: MCF7 cells either were (top line) or were not (bottom line) pretreated with 5 μM doxorubicin for 1 h before addition of 3 μg ml^−1 actinomycin D to halt transcription. Cells were collected at the indicated times after actinomycin D addition. […] Error bars=S.E.M, n==4 independent biological quadruplicates. […] HeLa Tet-off cells were transfected with plasmids encoding human β-Gl Norm mRNA and MUP mRNA or β-Gl Ter mRNA and MUP mRNA. β-Gl Norm and β-Gl 39 Ter mRNA transcription occurs under the agency of the non-stress-responsive Tet-off promoter. Cells were either pretreated with nothing (top), 50 μM doxorubicin for 1 h (middle) or 50 μg ml^−1 puromycin for 3 h (bottom) before transcriptional shut-off with 2 μg ml^−1 doxycycline. Cell aliquots were removed at the indicated “chase” time points, and RT-qPCR was used to assess the remaining levels of β-Gl Norm and β-Gl Ter mRNAs, each after normalization to MUP mRNA.
# UPF1 CP may result from cleavage of endogenous UPF1 or the transfected construct, but the use of anti-FLAG allows unambiguous assignment of UPF1-FLAG CP as derived from MYC-UPF1-FLAG. α, anti; h, hour(s). […] To serve as molecular weight standards for UPF1 CP, lysates of MCF7 cells transiently expressing a UPF1-FLAG protein encompassing the residues specified were also analyzed. […] The D37 cleavage site encompassing P4-P1 residues is boxed. […] Immunoblots are representative of at least 2 independent experiments.
# Cells were lysed, and protein was isolated using hypotonic buffer that consists of 10 mM Tris-C1, pH 7.4, 10 mM NaCl, 2 mM EDTA, 0.5% Triton X-100, 2 mM benzamidine, 1 mM PMSF, NEM (50 μg/mL), 1× phosphatase inhibitor cocktail (Roche), and 1× protease inhibitor cocktail (Roche; Basel, Switzerland). After 10 minutes of incubation at 4° C., NaCl was added to 150 mM, and lysates were cleared by centrifugation. Proteins were resolved using SDS-PAGE, transferred to Hybond ECL nitrocellulose (GE), and probed using antibody that recognizes one of the following: UPF1(1-416) (1:2000^8), p-UPF1 S1116 (1:1000; Millipore 07-1016; Billerica, Mass.), p-UPF1 S1089 (1:1000; Millipore 07-1015), Calnexin (1:2000; Enzo Life Sciences ADISPA860; Farmingdale, N.Y.), UPF2 (1:200; Santa Cruz Biotechnology C18 20227; Dallas, Tex.), UPF3× and 3 (1:1000^8), MLN51 (1:1000; Bethyl Laboratories A302-471; Montgomery, Tex.), GAPDH (1:200; Santa Cruz Biotechnology 25778), CBP80 (1:1000; Bethyl Laboratories A301-793), SMG5 (1:1000; Abcam 33033; Cambridge, United Kingdom), SMG6 (1:1000; Abcam 57539), SMG7 (1:1000; Bethyl Laboratories 302-170A), SMG1 (1:1000; Cell Signaling D42D5; Danvers, Mass.), Cleaved Caspase 3 (1:1000; Cell Signaling 9664), Cleaved Caspase 9 (1:1000; Cell Signaling 7237), PARP (1:1000; Cell Signaling 9542), Cleaved PARP (1:200; Santa Cruz Biotechnology sc56196) PLC-γ1 (1:200; Santa Cruz Biotechnology 58407), α-Tubulin (1:1000; Cell Signaling 3873P), FLAG (1:5000; Sigma, clone M2 a5982), HA (1:5000; Roche, clone 3F10 12013819001), or MYC (1:1000; Cell Signaling, clone 9B110 2276). Immunoreactivity was assessed using SuperSignal West Pico or Femto (Pierce Biotechnology; Waltham, Mass.).
# Biochemical changes to the key NMD factor, UPF1, that correlate with doxorubicin treatment (FIG. 1c), were examined. MCF7 cells were exposed to doxorubicin (5 μM) for varying amounts of time and cell lysates were analyzed using western blotting and an in-house generated polyclonal rabbit serum raised against the N-terminal 416 amino acids of human UPF1. […]
# UPF1 [2] = experiment: Western blot of UPF1 CP generation in Daudi B lymphoblasts; format: cell-based, human; conditions: 40 ng/mL TNF-α or 2 μg/mL doxorubicin
# Procedure: FIG. 10b is essentially as in a, but using lysates of HEK293T cells exposed to 1 μM staurosporine. FIG. 10c is essentially as in a, but using lysates of human Daudi B lymphoblasts exposed to 40 ng/mL TNF-α or 2 μg/mL doxorubicin. FIG. 10d is essentially as in a, but using lysates of human Jurkat T cells exposed to 1 μM staurosporine. FIG. 10e is essentially as in a, but using lysates of canine MDCK cells exposed to 2 μM staurosporine. FIG. 10f is essentially as in a, but using lysates of bovine MDBK cells exposed to 2 μM staurosporine. FIG. 10g is essentially as in a, but using lysates of Chinese Hamster Ovary (CHO) cells exposed to 2 μM staurosporine. FIG. 10h is essentially as in a, but using lysates of African green monkey COS-7 cells exposed to 2 μM staurosporine or 2 μg/mL doxorubicin. At least two apoptotic inducers were used for each cell line, and at least two cell lines were tested with each apoptotic inducer.
# Cells were lysed, and protein was isolated using hypotonic buffer that consists of 10 mM Tris-C1, pH 7.4, 10 mM NaCl, 2 mM EDTA, 0.5% Triton X-100, 2 mM benzamidine, 1 mM PMSF, NEM (50 μg/mL), 1× phosphatase inhibitor cocktail (Roche), and 1× protease inhibitor cocktail (Roche; Basel, Switzerland). […] Immunoreactivity was assessed using SuperSignal West Pico or Femto (Pierce Biotechnology; Waltham, Mass.). […]
structure (smiles),measurement,setting,value
"COc1cccc2c1C(=O)c1c(O)c3c(c(O)c1C2=O)C[C@@](O)(C(=O)CO)C[C@@H]3O[C@H]1C[C@H](N)[C@H](O)[C@H](C)O1 [doxorubicin, Doxorubicin]",time at which UPF1 phosphorylation (S1116) levels diminish,"UPF1 [1]; MCF7, 5 μM doxorubicin",≤ 5 h
same,time at which two additional UPF1 bands of greater mobility were resolved,"UPF1 [1]; MCF7, 5 μM doxorubicin",≤ 5 h
same,time at which higher-mobility UPF1 species were generated,"UPF1 [1]; MCF7, 50 μM doxorubicin",≤ 2 h
same,time of production of the PARP cleavage product,"UPF1 [1]; MCF7, 50 μM doxorubicin",8 h
same,UPF1 CP level relative to uncleaved UPF1,"UPF1 [1]; MCF7 stably transduced with MYC-UPF1-FLAG WT, 5 μM doxorubicin 16 h",about one-third the level of uncleaved UPF1
same,UPF1 CP generation,UPF1 [2],led to generation of the UPF1 CP prior to maximal PARP cleavage
